One test addresses T1, human TF (Homo sapiens, UniProt P13726).
T1 construct: Three VU-SCC cells lines with various levels of TF expression were selected for additional analysis; endogenous in cells; host or cells: HNSCC cell lines VU-SCC-OE, VU-SCC-078, VU-SCC-120
Put plainly: Tisotumab binding to HNSCC cell lines by flow cytometry. The conditions noted are these: 2 μg/ml. The protocol:
Methods: Three VU-SCC cells lines with various levels of TF expression were selected for additional analysis. It was determined that VU-SCC-OE had TF expression levels similar to that of non-cancerous fibroblasts and VU-SCC-078 had slightly higher expression levels of TF compared to VU-SCC-OE; VU-SCC-120 was a cell line with high levels of TF expression (FIG. 2). These three cell lines were cultured and subsequently assayed for tisotumab binding. Cells were incubated with the anti-human TF monoclonal antibody, (tisotumab, 2 μg/ml, IgG1-1015-011, Genmab) or an isotype control IgG (Genmab IgG1-b12). The PE-conjugated goat (Fab′)2 anti-human IgG secondary antibody (1:50 Jackson, 109-116-098) was applied and the cells were analyzed by flow cytometry.

Another test has as its system VU-SCC-040 tumor. Put plainly: TV monotherapy in VU-SCC-040 xenograft mice. In kind it is in vivo, nude mice. As to the method:
(§1) Nude mice (female, athymic nu/nu, age 6-8 weeks old, from Envigo, Horst, The Netherlands), were kept in filter top cages under sterile conditions under standardized environmental conditions. The HNSCC cell lines FaDu, VU-SCC-OE or VU-SCC-040 were subcutaneously injected in both flanks (2×10^6 cells per flank). The implanted tumor cells were allowed to grow to an average size of 100 mm^3 (range 40-180 mm^3). The mice were treated intraperitoneally (ip) with tisotumab vedotin or an isotype control (IgG1-b12-c-vcMMAE) (FIG. 6). […] Tumor volume was measured with electronic calipers (V=(L×W×H)×0.5 where V=volume, L=length, W=width, H=height) and calculated as mean of tumor(s) per mouse. Tumors with a start volume below 40 mm^3 and no signs of growth were excluded from the analysis. Tumors from un-treated tumor bearing mice were harvested and embedded in paraffin for analysis of TF expression using IHC analysis as described in the preceding examples. TF expression was detected using anti-CD142-FITC or isotype control (IgG1-FITC) with rabbit anti-FITC (Zymed) and BrightVision Immunohistochemistry (IHC) Detection Kit and visualized with DAB counterstained with Haematoxylin.
(§2) Nude mice were injected with HNSCC cells and xenografts were established as described above in Example 3A. […] Tumor volume was measured as described in the preceding example. Data analysis was performed using Graph Pad Prism version 9.1.0 (GraphPad Software, San Diego, CA). Data are depicted as mean±SD or mean±SEM. Statistical differences were determined using a Kruskal-Wallis test with multiple comparison tests (>2 groups). Improved overall survival was assessed using the Kaplan-Meier method and differences between the groups was assessed by the Log-rank test (Mantel-Cox). p-values<0.05 were considered significant (*p<0.05, **p<0.01,***p<0.001, **** p<0.0001, ns=not significant).

The test system of the next test is primary keratinocytes. In words: Cell Titer-Blue cytotoxicity assay in primary keratinocytes. Particulars: low TF expression. In kind it is cell-based, human. As to the method: Keratinocytes were cultured in serum-free Keratinocyte medium (KSFM, Gibco, 17005-034) supplemented with 0.1% bovine serum albumin (BSA, Biovision), recombinant epidermal growth factor (EGF) (Gibco, 10450-013) and bovine pituitary extract (Gibco, 13028-014). HNSCC cell lines were cultured in Dulbecco's Modified Eagle's Medium (DMEM), containing 5% fetal bovine serum (FBS, Gibco, 10270-106) and 2 mM L-glutamine (Lonza, BE-17-605E). The FaDu cell line was purchased from the ATCC. […]
Methods: Cells were seeded in 96-wells plates on day 0 (1000-6000 cells/well, depending on the cell line). […] The relative number of viable cells was assessed on day 5 using a Cell Titer-Blue assay (Promega, Leiden, The Netherlands, G8080) according to the protocol from the manufacturer and fluorescence was measured using the GloMax®-Multi Detection System (Promega). […] After subtraction of background (medium only), the percentages of viable cells were calculated using the following formula: % viable cells=((mean fluorescence test samples−mean fluorescence staurosporine sample)/(mean fluorescence untreated sample−mean fluorescence staurosporine sample))*100. […]
In general terms: The colour change of resazurin is a common sign of viable cells or microbes.

In test [1] the test system is FaDu xenograft. Put plainly: TV combined with radiotherapy (RT) in FaDu xenograft mice. The test is classed as in vivo, nude mice. The conditions noted are these: for Median survival [days]: end of experiment day 112; for Range Survival [days]: end of the experiment is day 112. As to the method:
FaDu xenografts were established in nude mice as described in Example 3. […] For mice subjected to RT, 2 Gy whole body radiotherapy was administered at day 1.

For the next test, the system named is FaDu tumor. In words: TV monotherapy in FaDu xenograft mice. In kind it is in vivo, nude mice. As to the method:
as §1
Nude mice were injected with HNSCC cells and xenografts were established as described above in Example 3A. Xenograft mice (5 mice with 8-10 tumors per group) were treated with PBS, 2 and 4 mg/kg tisotumab vedotin, or 4 mg/kg isotype IgG1-vedotin on days 0, 7 and 13 (FaDu) or on days 0, 7 and 14 (VU-SCC-OE and VU-SCC-040) (FIG. 6). Tumor volume was measured as described in the preceding example. Data analysis was performed using Graph Pad Prism version 9.1.0 (GraphPad Software, San Diego, CA). Data are depicted as mean±SD or mean±SEM. Statistical differences were determined using a Kruskal-Wallis test with multiple comparison tests (>2 groups). Improved overall survival was assessed using the Kaplan-Meier method and differences between the groups was assessed by the Log-rank test (Mantel-Cox). p-values<0.05 were considered significant (*p<0.05, **p<0.01,***p<0.001, **** p<0.0001, ns=not significant).

Test [2] concerns FaDu xenograft. Put plainly: TV combined with cisplatin (CDDP) in FaDu xenograft mice. Particulars: 2 mg/kg TV + cisplatin 3 mg/kg ip.
Experimental: FaDu xenografts were established in nude mice (6-7 mice/group) as described above in Example 4. Mice were treated with the antibodies on day 0 and 7 and/or on day 1 and 8 with 3 mg/kg intraperitoneal cisplatin (CDDP) chemotherapy (CT) (FIG. 6). TV or control IgG-vedotin (IgG1-V) was administered at day 0. For mice subjected to chemotherapy, cisplatin was administered at day 1. A minimum of 8 tumors were included per group.
Test [3] has as its system FaDu xenograft. In words: TV combined with chemoradiotherapy (CRT) in FaDu xenograft mice. The test is classed as in vivo, nude mice. As to the method: (§3) Methods: FaDu xenografts were established in nude mice (5-6 mice/group) as described above in Example 3.
(§4) FaDu xenograft mice were treated 24 hour hours prior to CRT (CRT was administered on day 1 and 11) with TV or the isotype control, which was administered on day 0 and 10. VU-SCC-OE xenograft mice were treated 24 hour hours prior to CRT (CRT was administered on day 1 and 8) with TV or the isotype (IgG1-vedotin) control, which was administered on day 0 and 7. For mice receiving CRT, whole body irradiation (2 Gy; Varian TrueBeam™ Linear Accelerator) was applied approximately 4 hours after administering cisplatin (CDDP, 3 mg/kg). Tumor volume was measured as described above, and statistical analysis was performed on the collected data as also described above.

The subject of another test is HNSCC cell lines. Put plainly: Cell Titer-Blue cytotoxicity assay in HNSCC cell lines. The test is classed as cell-based, human. As to the method:
Methods: Cells were seeded in 96-wells plates on day 0 (1000-6000 cells/well, depending on the cell line). After overnight culturing, tisotumab vedotin or the negative control isotype IgG1-vedotin (IgG1-c-b12-vc monomethyl auristatin E (MMAE)) was added in increasing concentrations to the different wells. The relative number of viable cells was assessed on day 5 using a Cell Titer-Blue assay (Promega, Leiden, The Netherlands, G8080) according to the protocol from the manufacturer and fluorescence was measured using the GloMax®-Multi Detection System (Promega). Staurosporine (5 μM, Sigma, UCN-01 or 56942) was used as a positive control to induce maximum cell death, and untreated cells were also used as a negative control. After subtraction of background (medium only), the percentages of viable cells were calculated using the following formula: % viable cells=((mean fluorescence test samples−mean fluorescence staurosporine sample)/(mean fluorescence untreated sample−mean fluorescence staurosporine sample))*100. Graphs represent non-linear regression curves of log-transformed antibody concentrations, using Graphpad Prism version 9.1.0 (GraphPad Software, San Diego, CA).

In a further test the test system is VU-SCC-OE tumor. Put plainly: TV monotherapy in VU-SCC-OE xenograft mice. The conditions noted are these: days 0, 7, 14. In kind it is in vivo, nude mice. The protocol:
as §1, §2

Another test concerns VU-SCC-OE xenograft. In words: TV combined with chemoradiotherapy (CRT) in VU-SCC-OE xenograft mice. In kind it is in vivo, nude mice. The protocol: as §3, §4

“Also recorded” adds a separate entry of the source. Marks after values point to notes of the source that are not given here. Bounds are passed on as bounds.

Consider 2 substances from patent publication US20250302982A1, “METHODS OF TREATING CANCER WITH ANTI-TISSUE FACTOR ANTIBODY-DRUG CONJUGATES” (Genmab A/S, priority 2022, published 2025).

T1 sequence (P13726 33-295): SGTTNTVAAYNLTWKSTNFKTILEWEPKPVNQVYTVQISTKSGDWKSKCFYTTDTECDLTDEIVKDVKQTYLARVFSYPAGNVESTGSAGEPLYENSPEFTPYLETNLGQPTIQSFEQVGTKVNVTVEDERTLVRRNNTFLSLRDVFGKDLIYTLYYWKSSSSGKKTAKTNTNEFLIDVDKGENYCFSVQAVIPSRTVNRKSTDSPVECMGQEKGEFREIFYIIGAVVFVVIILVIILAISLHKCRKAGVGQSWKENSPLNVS

On to tisotumab, for which the “binding to HNSCC cells (flow cytometry)” value with human TF (VU-SCC-078, intermediate expression of TF) was “bound robustly”; with human TF (VU-SCC-120, high levels of TF) it was “bound robustly”; with human TF (VU-SCC-OE, lower levels of TF expression), “still capable of binding”.
For the substance tisotumab vedotin, the “tumor growth compared to control groups” value with VU-SCC-040 tumor (1 mg/kg monotherapy) is listed as “did not inhibit tumor growth”; in the test with VU-SCC-040 tumor (2 mg/kg) it was “inhibition of tumor growth was observed”; with VU-SCC-040 tumor (4 mg/kg), “inhibition of tumor growth was observed”; in the test on FaDu tumor (2 mg/kg ip, days 0, 7, 13), “significant inhibition of tumor growth”. The “tumor growth at day 7 compared to isotype control” value in the test with VU-SCC-040 tumor (4 mg/kg, after 1 treatment) is “reduced tumor growth”. Also, the “average IC50” value is listed as “above 0.025 μg/ml” with primary keratinocytes and “above 0.025 μg/ml” with HNSCC cell lines (VU-SCC-OE, low TF expression). For the same substance, the “survival compared to control treatment (PBS or IgG-V)” value with FaDu xenograft [1] (1 mg/kg TV alone) was “did not prolong survival”. The “survival time compared to RT alone” value with FaDu xenograft [1] (2 mg/kg TV + RT, p<0.001) is given as “significantly better survival time”. Besides, the “tumor volume on day 7” value with FaDu xenograft [1] (TV 1 mg/kg day 0 + RT 2 Gy day 1) is “Decreased tumor volume”. Also, the “tumor burden on day 7” value with FaDu xenograft [1] (TV 2 mg/kg alone, day 0) is “lowest tumor burdens”. For the same substance, in the test on FaDu xenograft [1] (TV 2 mg/kg day 0 + RT 2 Gy day 1, listed as TV), the “tumor burden / tumor volume on day 7” value is reported as “lowest tumor burdens; also recorded: Decreased tumor volume”. For the same substance, the “Median survival” value is 10 days in the test on FaDu xenograft [1] (hTV 1 mg/kg), 21 days in the test on FaDu xenograft [1] (hTV 1 mg/kg + RT (2 Gy)) and 69.5 days in the test on FaDu xenograft [1] (hTV 2 mg/kg). Also, the entries for the “Range Survival” value with FaDu xenograft [1] (hTV 1 mg/kg) and with FaDu xenograft [1] (hTV 1 mg/kg + RT (2 Gy)) were 8 to 16 days and 14 to 21 days, respectively. For the same substance, the “Median survival [days]” value in the test with FaDu xenograft [1] (hTV 2 mg/kg + RT (2 Gy), listed as TV) is “median not reached”; in the test with FaDu xenograft [1] (hTV 2 mg/kg + RT (2 Gy), listed as hTV), “Undefined”. For the same substance, the “Range Survival [days]” value is listed as 21-112* days with FaDu xenograft [1] (hTV 2 mg/kg + RT (2 Gy)) and 28-112* days in the test on FaDu xenograft [1] (hTV 2 mg/kg). The tumor regression result was “tumor regression was observed after 3 treatments” with FaDu tumor (2 mg/kg ip, days 0, 7, 13); “significant and persistent tumor regression” with FaDu tumor (4 mg/kg ip, after the first treatment); “induced tumor regression” in the test on VU-SCC-OE xenograft (2 mg/kg TV + CRT). For the same substance, in the test with FaDu tumor (2 mg/kg, last treatment on day 13), the “time after start of initial treatment from which tumor regrowth was visible” value was at least 30 days. Further, the “recurrence of tumor growth until end of experiment (day 76)” value with FaDu tumor (4 mg/kg ip, days 0, 7, 13) is “without recurrence of tumor growth”. For the same substance, the “time to complete tumor regression in all mice” value in the test with FaDu tumor (4 mg/kg ip, days 0, 7, 13) is given as at most 30 days. Further, the “tumor size on day 7 compared to isotype control or PBS” value with FaDu tumor (tisotumab vedotin treatment groups, day 7) is recorded as “considerably lower tumor size”. Besides, in the test on FaDu xenograft [2], the “survival compared to either treatment alone” value is “improved survival”. For the same substance, the “tumor load on day 7 compared to either treatment alone” value in the test on FaDu xenograft [2] is given as “significantly reduced tumor load”. In addition, in the test on FaDu xenograft [3] (2 mg/kg TV + CRT), the “overall survival (Kaplan-Meier) compared to control groups, CRT or TV alone” value is reported as “significant increase in overall survival”. Also, in the test on FaDu xenograft [3] (2 mg/kg TV + CRT), the “tumor size at day 9 after first treatment compared to IgG1-vedotin + CRT” value was “significant reduction in tumor size”. In addition, the “tumor growth compared to IgG1-vedotin control group” value with FaDu xenograft [3] (2 mg/kg TV alone, day 0 and 10) is on record as “reduced tumor growth”. In the test with HNSCC cell lines (HNSCC cell lines with intermediate and high levels of TF expression), the “mean IC50 values” is 2.5 to 7 ng/mL. Moreover, the “killing of HNSCC cell lines (percent viable cells)” value with HNSCC cell lines (increasing concentrations, viable cells on day 5) is “efficient and dose-dependent killing”. Moreover, the tumor growth result was “rapid tumor growth” in the test with VU-SCC-OE tumor (1 mg/kg), “inhibition of tumor growth” in the test with VU-SCC-OE tumor (2 mg/kg) and “inhibition of tumor growth” in the test with VU-SCC-OE tumor (4 mg/kg TV). The “survival compared to control groups or CRT or TV alone” value in the test on VU-SCC-OE xenograft (2 mg/kg TV + CRT) is “significantly prolonged survival”. The “tumor growth compared to control groups (PBS and IgG1-vedotin)” value in the test with VU-SCC-OE xenograft (2 mg/kg TV alone) is recorded as “some inhibition of tumor growth”.
